Measurements: PMC7279249, “Synthesis of Fmoc-Triazine Amino Acids and Its Application in the Synthesis of Short Antibacterial Peptidomimetics” (International Journal of Molecular Sciences, 2020)
≈ marks a conversion by molar mass, not a printed value. Read-outs that look alike come from different tables or passages of the source. Peptide text beside a SMILES is read from it.

Tests used:
[1] = Analytical RP-HPLC retention time; type: physicochemical; conditions: C18 4.6 mm × 250 mm, 0.05% aq. TFA (A) / 0.05% TFA in CH3CN (B), 5% to 95% B in 30 min, 1.0 mL/min, 25 °C, 280 nm, method A of the Supplementary Material
Experimental: As described previously, all reactions were performed under argon atmosphere in flame-dried glassware using dry solvents unless otherwise noted. Anhydrous organic solvents of purity greater than 99.9% were purchased from Aldrich and used directly in the reaction. All reagents and some of the starting materials were purchased from commercial chemical suppliers, including Sigma-Aldrich, TCI, and Across Organics and used as received. Analytical thin-layer chromatography (TLC) was performed on Merck aluminum sheets with silica gel 60 F254 using 0.25 mm plates, and was visualized by ultraviolet light, staining with KMnO4 and ninhydrin. Column chromatography purification was performed on Merck silica gel 60 (70–230 mesh or 230–400 mesh). Bruker DRX-400 and DRX-500 NMR spectrometer were used for recording ^1H and ^13C NMR spectra. NMR chemical shifts (δ) are denoted in parts per million (ppm), and coupling constants (J) are given in hertz (Hz). MALDI-TOF mass was recorded using Shimadzu mass spectrometer. The crude peptidomimetics and peptides were purified by reverse-phase high-performance liquid chromatography (RP-HPLC) on Agilent HPLC system equipped with a C18 semi-preparative column (250 mm × 22 mm, 10 μm) using 0.05% aq. trifluoroacetic acid (TFA) (eluent A) and 0.05% TFA in CH3CN (eluent B) were used with a flow rate of 5.0 mL/min at 25 °C, under wavelength 280 nm. Moreover, the purity of the peptide judged to be ≥ 95% pure by analytical HPLC equipped with a C18 column (4.6 mm× 250 mm, 10 μm). Two different linear gradients of 0.05% aq. TFA (eluent A) and 0.05% TFA in CH3CN (eluent B) (gradient method, 5% of eluent B to 95% of Eluent B in 30 min; injection volume, 10 µL; concentration 10 µmol) were used with a flow rate of 1.0 mL/min at 25 °C, under wavelength 280 nm.

[2] = system: Staphylococcus epidermidis (KCTC 1917)
Experimental: (§1) The bacterial cells were grown overnight for 18 h at 37 °C in 10 mL of Mueller Hinton broth (MHB). The 10 μL of this culture was inoculated into 10 mL of fresh MHB and incubated for an additional 3 h at 37 °C to obtain mid-logarithmic phase organisms. Aliquots (100 μL) of bacterial cell suspension at 4 × 10^6 CFU/mL in 1% peptone were added to 100 μL of the sample solutions (serial 2-fold dilutions in 1% peptone). […] The MIC values were determined after 18 h of incubation.

E. coli (KCTC 1682) = system: E. coli (KCTC 1682)
Experimental: as §1

[3] = system: Staphylococcus aureus (KCTC 1621)
Experimental: as §1

[4] = system: P. aeruginosa (KCTC 1637)
Experimental: as §1

[5] = system: trypsin (read-out S. aureus KCTC 1621); type: in vitro ADME
Experimental: (§2) Digestion of the BJK-4 and melittin by trypsin was carried out using 100 μg/mL peptide and 0.4 μg/mL trypsin in PBS, at 37 °C for 2 h. The reaction solution (50 μL) was added to 150 μL of a bacterial suspension (2 × 10^6 CFU/mL in Mueller-Hinton broth). After incubation at 37 °C for 18 h, the bacterial growth inhibition was determined by measuring absorbance at 600 nm with a microplate ELISA reader (Bio-Tek; EL 800).

[6] = system: trypsin (read-out E. coli KCTC 1682); type: in vitro ADME
Experimental: as §2

[7] = Gram-positive, serial 2-fold dilutions in 1% peptone, 1 to […], 18 h incubation, lowest concentration causing 100% inhibition of growth (no visible turbidity)
[8] = Gram-negative, serial 2-fold dilutions in 1% peptone, 1 to […], 18 h incubation, lowest concentration causing 100% inhibition of growth (no visible turbidity)

SMILES	Rt, HPLC retention time [1] [min]	MIC, Staphylococcus epidermidis (KCTC 1917) ([2]; KCTC 1917, 18 h) [µg/mL]	MIC, E. coli (KCTC 1682) (E. coli (KCTC 1682); KCTC 1682, 18 h) [µg/mL]	MIC, Staphylococcus aureus (KCTC 1621) ([3]; KCTC 1621, 18 h) [µg/mL]	MIC, P. aeruginosa (KCTC 1637) ([4]; KCTC 1637, 18 h) [µg/mL]	Antimicrobial activity against S. aureus after trypsin treatment [5]	Antimicrobial activity against E. coli after trypsin treatment [6]	MIC, Staphylococcus epidermidis (KCTC 1917) [2, 7] [µg/mL]	MIC, E. coli (KCTC 1682) (E. coli (KCTC 1682); [8]) [µg/mL]	MIC, Staphylococcus aureus (KCTC 1621) [3, 7] [µg/mL]	MIC, P. aeruginosa (KCTC 1637) [4, 8] [µg/mL]	Antimicrobial activity against S. aureus after trypsin treatment ([5]; 100 μg/mL peptide, 0.4 μg/mL trypsin in PBS, 37 °C, 2 h, then S. aureus KCTC 1621 in Mueller-Hinton broth, 18 h at 37 °C, absorbance 600 nm)	Antimicrobial activity against E. coli after trypsin treatment ([6]; 100 μg/mL peptide, 0.4 μg/mL trypsin in PBS, 37 °C, 2 h, then E. coli KCTC 1682 in Mueller-Hinton broth, 18 h at 37 °C, absorbance 600 nm)
CC(=O)NCCNc1nc(NCC(N)=O)nc(N(Cc2ccccc2)Cc2ccccc2)n1 [BJK-2]	21.8	>128	>128	>128	>128								
CC(=O)NCCNc1nc(NCC(=O)NCCNc2nc(NCC(=O)NCCNc3nc(NCC(N)=O)nc(N(CCCN)CCCN)n3)nc(N(Cc3ccccc3)Cc3ccccc3)n2)nc(N(CCCN)CCCN)n1 [BJK-4]		16 (≈ 14.6 µM)	16 (≈ 14.6 µM)	16 (≈ 14.6 µM)	16 (≈ 14.6 µM)	nearly preserved	nearly preserved						
CC(=O)N[C@@H](Cc1c[nH]c2ccccc12)C(=O)N[C@@H](CCCCN)C(=O)N[C@@H](Cc1c[nH]c2ccccc12)C(N)=O [BJK-9] (Ac-Trp-Lys-Trp-NH2)	19.6	>128	>128	>128	>128								
CC(=O)NCCNc1nc(NCC(=O)NCCNc2nc(NCC(=O)NCCNc3nc(NCC(=O)NCCNc4nc(NCC(N)=O)nc(N(Cc5ccccc5)Cc5ccccc5)n4)nc(N(CCCN)CCCN)n3)nc(N(Cc3ccccc3)Cc3ccccc3)n2)nc(N(CCCN)CCCN)n1 [BJK-6]								16 (≈ 10.8 µM)	16 (≈ 10.8 µM)	16 (≈ 10.8 µM)	16 (≈ 10.8 µM)		
CC[C@H](C)[C@H](NC(=O)CN)C(=O)NCC(=O)N[C@@H](C)C(=O)N[C@H](C(=O)N[C@@H](CC(C)C)C(=O)N[C@@H](CCCCN)C(=O)N[C@H](C(=O)N[C@@H](CC(C)C)C(=O)N[C@H](C(=O)N[C@H](C(=O)NCC(=O)N[C@@H](CC(C)C)C(=O)N1CCC[C@H]1C(=O)N[C@@H](C)C(=O)N[C@@H](CC(C)C)C(=O)N[C@H](C(=O)N[C@@H](CO)C(=O)N[C@@H](Cc1c[nH]c2ccccc12)C(=O)N[C@H](C(=O)N[C@@H](CCCCN)C(=O)N[C@@H](CCCNC(=N)N)C(=O)N[C@@H](CCCCN)C(=O)N[C@@H](CCCNC(=N)N)C(=O)N[C@@H](CCC(N)=O)C(=O)N[C@@H](CCC(N)=O)C(N)=O)[C@@H](C)CC)[C@@H](C)CC)[C@@H](C)O)[C@@H](C)O)C(C)C)C(C)C [melittin, reference compound]												completely abolished	completely abolished
CC(=O)NCCNc1nc(NCC(=O)NCCNc2nc(NCC(=O)NCCNc3nc(NCC(N)=O)nc(N(Cc4ccccc4)Cc4ccccc4)n3)nc(N(CCCN)CCCN)n2)nc(N(Cc2ccccc2)Cc2ccccc2)n1 [BJK-5]	21.1	64 (≈ 55.1 µM)	128 (≈ 110 µM)	64 (≈ 55.1 µM)	32 (≈ 27.6 µM)								
CC(=O)N[C@@H](CCCCN)C(=O)N[C@@H](Cc1c[nH]c2ccccc12)C(=O)N[C@@H](CCCCN)C(N)=O [BJK-8] (Ac-Lys-Trp-Lys-NH2)	14.2	>128	64 (≈ 128 µM)	>128	128 (≈ 255 µM)								
CC(=O)N[C@@H](CCCCN)C(=O)N[C@@H](Cc1c[nH]c2ccccc12)C(N)=O [BJK-7] (Ac-Lys-Trp-NH2)	15.4	>128	128 (≈ 343 µM)	>128	128 (≈ 343 µM)								
CC(=O)NCCNc1nc(NCC(=O)NCCNc2nc(NCC(N)=O)nc(N(Cc3ccccc3)Cc3ccccc3)n2)nc(N(CCCN)CCCN)n1 [BJK-3]		32 (≈ 41.5 µM)	64 (≈ 82.9 µM)	32 (≈ 41.5 µM)	32 (≈ 41.5 µM)								
CC(=O)NCCNc1nc(NCC(N)=O)nc(N(CCCN)CCCN)n1 [BJK-1]	8.8	>128	128 (≈ 335 µM)	>128	128 (≈ 335 µM)								
CC(=O)N[C@@H](CCCCN)C(=O)N[C@@H](Cc1c[nH]c2ccccc12)C(=O)N[C@@H](CCCCN)C(=O)N[C@@H](Cc1c[nH]c2ccccc12)C(N)=O [BJK-10] (Ac-KWKW-NH2)	17.9							>128	>128	>128	>128		
